The text below walks through data of article PMC6479981, “Design, Synthesis, and In Vitro Biological Activities of a Bio-Oxidizable Prodrug to Deliver Both ChEs and DYRK1A Inhibitors for AD Therapy” (Molecules, 2019).

Series [1] concerns the target T1, hAChE (Homo sapiens, UniProt P22303).
T1 construct: purchased Aldrich
The series is described as follows: biochemical. In kind it is biochemical. The procedure: (§1) Inhibitory capacity of compounds on hAChE and hBuChE biological activity was evaluated through the use of Ellman’s spectrometric method. Acetylthiocholine iodide (ATCI), […] (BTCI) and 5,5-dithiobis-(2-nitrobenzoic) acid (DTNB) were purchased from Sigma Aldrich. Lyophilized hAChE and hBuChE were purchased from Aldrich, and were diluted in phosphate buffer (pH 8) so as to give an enzyme solution with 0.25 units/mL enzyme activity. In the procedure, 100 μL of 0.3 mM DTNB dissolved in phosphate buffer pH 7.4 were added into the 96 well plate, followed by 50 μL of the tested compound solution and 50 μL of enzyme solution. After 5 min of preincubation, the reaction was then initiated by the injection of 50 μL of 10 mM ATCI or BTCI solution. […] All assays were performed in duplicate, and IC50 values were determined graphically from 8 points inhibition curves using the Prism® software.

The target of series [2] is T2, hBuChE (Homo sapiens, UniProt P06276).
T2 construct: purchased Aldrich
T2 sequence (P06276 29-602): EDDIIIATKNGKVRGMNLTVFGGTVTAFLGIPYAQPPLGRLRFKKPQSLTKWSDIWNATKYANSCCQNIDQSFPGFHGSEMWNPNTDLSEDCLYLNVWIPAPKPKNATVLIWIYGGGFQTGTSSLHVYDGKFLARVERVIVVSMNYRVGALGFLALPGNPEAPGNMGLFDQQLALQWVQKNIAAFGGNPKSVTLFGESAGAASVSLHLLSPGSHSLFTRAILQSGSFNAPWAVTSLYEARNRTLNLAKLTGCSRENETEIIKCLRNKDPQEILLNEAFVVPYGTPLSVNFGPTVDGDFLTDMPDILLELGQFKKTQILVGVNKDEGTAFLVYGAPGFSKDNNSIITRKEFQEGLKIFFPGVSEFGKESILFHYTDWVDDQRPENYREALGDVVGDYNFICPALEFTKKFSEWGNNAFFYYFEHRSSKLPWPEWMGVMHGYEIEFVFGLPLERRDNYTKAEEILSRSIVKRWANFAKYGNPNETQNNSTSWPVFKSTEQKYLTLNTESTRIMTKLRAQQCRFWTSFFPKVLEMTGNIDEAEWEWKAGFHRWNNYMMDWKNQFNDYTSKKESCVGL
The series is described as follows: biochemical. In kind it is biochemical. The procedure: as §1

For a further series, the target named is T3, human recombinant DYRK1A (Homo sapiens, UniProt Q13627).
T3 construct: Eurofins Pharma Discovery (ran the assay)
The series is described as follows: biochemical. Conditions: for inhibition at 1 µM: read-out: DYRK1a Inhibition (%). The procedure: Evaluation of the effects of compounds on the activity of the human recombinant DYRK1A was made using the LANCE® detection method, and was quantified by measuring the phosphorylation of Ulight-[…]-amide (MBP). The assays were conducted by Eurofins Pharma Discovery in Bois l’Evêque, France. […] Next, 100 nM of Ulight-[…]-amide (MBP) and 10 µM ATP were added to initiate the reaction, and the mixture was incubated for 30 min at 25 °C. A blank without enzyme was also performed for control basal measurements. The experiment was stopped by addition of 13 mM EDTA, followed by the addition of the anti-phospho-MBP antibody labeled with europium chelate after 5 min. […] Outputs are expressed as a percentage of inhibition of the control DYRK1A activity.

The target in series [3] is T4, peripheral binding site of eeAChE (Electrophorus electricus, UniProt O42275).
T4 construct: purchased Aldrich
T4 sequence (O42275 24-633): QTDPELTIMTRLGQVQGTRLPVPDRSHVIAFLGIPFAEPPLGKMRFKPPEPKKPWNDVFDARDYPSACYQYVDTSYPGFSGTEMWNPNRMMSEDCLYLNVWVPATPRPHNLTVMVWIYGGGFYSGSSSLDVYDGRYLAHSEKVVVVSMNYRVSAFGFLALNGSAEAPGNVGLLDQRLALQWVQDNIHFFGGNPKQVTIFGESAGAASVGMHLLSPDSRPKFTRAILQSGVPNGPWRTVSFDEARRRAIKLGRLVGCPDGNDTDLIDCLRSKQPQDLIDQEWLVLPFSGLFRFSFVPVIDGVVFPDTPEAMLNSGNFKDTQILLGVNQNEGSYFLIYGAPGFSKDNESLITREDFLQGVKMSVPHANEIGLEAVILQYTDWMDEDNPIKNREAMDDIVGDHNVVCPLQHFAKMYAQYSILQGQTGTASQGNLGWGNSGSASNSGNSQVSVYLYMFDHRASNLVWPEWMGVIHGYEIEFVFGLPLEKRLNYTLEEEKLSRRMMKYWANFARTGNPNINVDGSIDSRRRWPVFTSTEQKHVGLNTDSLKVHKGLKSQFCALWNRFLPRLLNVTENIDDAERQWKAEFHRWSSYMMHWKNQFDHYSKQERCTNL
The series can be described thus: Propidium iodide displacement (competition) assay. The procedure:
The assays were performed at the Centre d’Etudes et de Recherche sur le Médicament de Normandie (CERMN) in Caen, France. […] Fluorescence intensity was monitored using a microplate reader. […] Each assay was performed in triplicate.

A short description of series [4]: PAMPA-BBB permeability assay. Type of series: in vitro ADME. Conditions: pH 7.4, 4 h, room temperature. The procedure: Assays were performed at the Centre d’Etudes et de Recherche sur le Médicament de Normandie (CERMN) in Caen, France. These assays were realized according to the methodology developed by PION, by means of the Pampa-BBB Explorer™ system. This system allows the measurement of the crossing velocity of a compound from one compartment to another through an artificial membrane at pH = 7.4. The experiment was replicated 6 times in 4 h, with quantification by UV-spectra reading. The result is given in Pe [cm·s^−1], and an interpretation by comparison with standard compounds is proposed. The studied compounds were diluted at 20 mM in DMSO, then diluted at […] in Prisma HT Buffer pH 7.4 (pION). 200 µL of this solution was placed in the wells of the donor plate. 5 μL of BBB-1 Lipid was placed in the filters of the acceptor plate. 200 µL of Brain Sink Buffer was added in the wells of the acceptor plate. The sandwich was then assembled and incubated for 4 h at room temperature, without stirring. The sandwich was then separated and the UV-vis spectra of the donor and acceptor compartments were determined with the plate reader (Tecan infinite M200, Männedorf, Switzerland). Pe were calculated with the PAMPA Explorer software v.3.7 (pION Inc, Billerica, MA, USA). Standard compounds used were corticosterone and theophylline.

For series [5], the target named is T1, hAChE. The series is described as follows: Time-dependent (stopped time) kinetic study of hAChE inhibition. In kind it is biochemical. The procedure:
(§2) To support the assumption of the pseudo-irreversible inhibition mechanism of both ChEs by compound 14, kinetic studies were also performed using stopped time assays at different concentrations of ligand 14. […] Using a nonlinear regression fitting analysis, the pseudo-first-order inhibition rate constant (kobs) for each concentration of 14 was obtained and the equilibrium constant (Kc) and the carbamoylation rate constant (k3) was determined by the reported method.
(§3) For the time-dependent experiments, assays were performed using a 96 well microplate reader to a final volume of 250 μL, a final enzyme concentration of 0.05 U·mL^−1 and an ATCI (or BTCI) and DNTB concentrations of 0.3 and 0.5 mM respectively in phosphate buffer (pH 8). At the starting time (t0), the inhibitor at various concentration (150 μL) was added to an equivalent volume of hAChE (or hBuChE). The mixture was then incubated at 37 °C and, at different time points, 50 μL aliquots were transferred to wells containing a solution of ATCI (or BTCI) and DTNB in phosphate buffer (200 μL) and the activity was determined by measuring the changes in absorbance at 412 nm every minute for 10 min. Blank experiments were also performed without inhibitor. The first order inhibition constant kobs was determined for all inhibitor concentrations using a nonlinear regression. Data were fitted with the equation, A = A0 exp(−kobs·t) + A∞ with A, A0, A∞ being ratios of the inhibited enzyme activity to the control activity at time t, 0, and ∞. Double reciprocal plots of kobs versus the inhibitor concentration were made to determine the equilibrium constant Kc and the carbamoylation rate constant k3, following the described method.

The target of series [6] is T2, hBuChE. The series can be described thus: Time-dependent (stopped time) kinetic study of hBuChE inhibition. In kind it is biochemical. The procedure: as §2, §3
Where [7] appears, read: mean value of duplicate, 5 min preincubation, read-out: IC50 hAChE.
The mark [8] stands for this setting: mean value of duplicate, 5 min preincubation, read-out: IC50 hBuChE.
Setting [9] is: at 1 μM compound, 10 μM ATP concentration, mean value of duplicate.

Like-named read-outs stand apart in the source and are kept apart here. Some results are limits rather than exact numbers.

T1 sequence (P22303 32-614): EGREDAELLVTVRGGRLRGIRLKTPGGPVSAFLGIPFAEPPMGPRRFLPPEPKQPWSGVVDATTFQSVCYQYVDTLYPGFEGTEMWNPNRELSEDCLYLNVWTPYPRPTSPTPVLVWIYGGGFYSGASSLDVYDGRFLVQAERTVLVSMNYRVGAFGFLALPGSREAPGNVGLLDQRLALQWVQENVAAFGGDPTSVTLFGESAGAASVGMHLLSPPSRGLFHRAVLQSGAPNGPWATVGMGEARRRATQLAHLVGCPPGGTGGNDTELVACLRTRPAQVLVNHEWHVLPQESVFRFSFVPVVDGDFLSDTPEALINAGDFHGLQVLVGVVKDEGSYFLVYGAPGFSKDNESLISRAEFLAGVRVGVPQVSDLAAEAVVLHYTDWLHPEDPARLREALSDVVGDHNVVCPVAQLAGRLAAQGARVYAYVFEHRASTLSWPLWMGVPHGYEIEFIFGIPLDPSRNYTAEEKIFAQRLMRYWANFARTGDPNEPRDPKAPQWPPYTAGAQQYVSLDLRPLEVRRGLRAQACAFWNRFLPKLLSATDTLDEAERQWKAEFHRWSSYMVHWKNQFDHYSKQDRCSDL

As usually defined, the IC50 is the point on the concentration scale where inhibition reaches its midpoint. As for `CCN1/C(=C/C(C)=O)Sc2ccc(OC(=O)OCCOCCNC(=O)c3cc4c(OC(=O)N(C)C)cccc4[n+](C)c3)cc21.COS(=O)(=O)[O-]` [compound 14, (Z)-5-((Dimethylcarbamoyl)oxy)-3-((2-(2-((((3-ethyl-2-(2-oxopropylidene)-2,3-dihydrobenzo[d]thiazol-5-yl)oxy)carbonyl)oxy)ethoxy)ethyl)carbamoyl)-1-methylquinolin-1-ium methyl sulfate], the IC50 at hAChE [1] (setting [7]) was 81.4 ± 0.4 nM; on hBuChE [2] (setting [8]), 482 ± 21 nM. Also, the “DYRK1a Inhibition (%)” value at human recombinant DYRK1A (setting [9]) came to 5%. Besides, the “Propidium Iodide Displacement Inhibition (%)” value in series [3] (compound 10^−5 M, eeAChE, propidium iodide 1 μM, mean value of triplicate) is given as 26 ± 1%. Moreover, the “Pe (PAMPA BBB, passive diffusion)” value in series [4] stood at 0 cm/s. In addition, the “carbamoylation rate constant k3” value came to 0.408 min⁻¹ on hAChE [5] and 0.574 min⁻¹ on hBuChE [6] (hBChE). For the same compound, the results for the “second order rate constant Ki (k3/Kc), carbamylation efficacy” value on hAChE [5] and on hBuChE [6] (hBuChE) were 1.78 µM⁻¹ min⁻¹ and 0.87 µM⁻¹ min⁻¹, respectively. In addition, the Kd at hAChE [5] (37 °C, double reciprocal plot of kobs vs inhibitor concentration, read-out: equilibrium constant Kc) is 230 nM; at hBuChE [6] (hBChE, 37 °C, double reciprocal plot of kobs vs inhibitor concentration, read-out: equilibrium constant Kc), 659 nM.
`CCN1/C(=C/C(C)=O)Sc2ccc(OC(=O)OCCOCCNC(=O)c3cc4ccccc4[n+](C)c3)cc21.COS(=O)(=O)[O-]` [compound 15, (Z)-3-((2-(2-((((3-Ethyl-2-(2-oxopropylidene)-2,3-dihydrobenzo[d]thiazol-5-yl)oxy)carbonyl)oxy)ethoxy)ethyl)carbamoyl)-1-methylquinolin-1-ium methyl sulfate]: on hAChE [1], the “inhibitory activity against hAChE (in words)” value is “did not show any significant inhibitory activity”. Further, the results for the concentration for half-maximal inhibition (IC50) on hAChE [1] (setting [7]) and on hBuChE [2] (setting [8]) were greater than 10000 nM and 6400 ± 714 nM, respectively. The “inhibitory activity against hBuChE (in words)” value against hBuChE [2] is listed as “did not show any significant inhibitory activity”. In addition, the “DYRK1a Inhibition (%)” value at human recombinant DYRK1A (setting [9]) was determined as 6%.
Regarding `CCN1/C(=C/C(C)=O)Sc2ccc(O)cc21` [Indy, reference compound], the IC50 at hAChE [1] (setting [7]) and on hBuChE [2] (setting [8]) was greater than 10000 nM throughout.
In general, inhibition refers to the share of the control response that was lost under treatment. In the case of `CN(C)C(=O)Oc1cccc2c1cc(C(=O)NCCO)c[n+]2C` [2a, reference compound], the results for the IC50 against hAChE [1] and against hBuChE [2] were 37.1 ± 0.1 nM and 1440 ± 286 nM, respectively. The inhibition at 1 µM on human recombinant DYRK1A is 0%.
With `CCN1/C(=C/C(C)=O)Sc2ccc(OC(=O)OCCOCCNC(=O)C3=CN(C)c4cccc(OC(=O)N(C)C)c4C3)cc21` [compound 4, (Z)-3-((2-(2-((((3-Ethyl-2-(2-oxopropylidene)-2,3-dihydrobenzo[d]thiazol-5-yl)oxy)carbonyl)oxy)ethoxy)ethyl)carbamoyl)-1-methyl-1,4-dihydroquinolin-5-yl dimethylcarbamate], the results for the IC50 against hAChE [1] and against hBuChE [2] were 1020 ± 72.1 nM and 961 ± 22 nM, respectively. Further, the inhibition at 1 µM at human recombinant DYRK1A was found to be 8%. Besides, in series [3] (read-out: Propidium Iodide Displacement Inhibition (%)), the inhibition at 10 µM came out at 4 ± 2%. Also, the Papp at 4 h in series [4] (PAMPA, read-out: Pe (PAMPA BBB, passive diffusion)) was found to be 2.41 ×10⁻⁶ cm/s.
Take `CCN1/C(=C/C(C)=O)Sc2ccc(OC(=O)OCCOCCNC(=O)C3=CN(C)c4ccccc4C3)cc21` [compound 16, (Z)-3-Ethyl-2-(2-oxopropylidene)-2,3-dihydrobenzo[d]thiazol-5-yl (2-(2-(1-methyl-1,4-dihydroquinoline-3-carboxamido)ethoxy)ethyl) carbonate]: the IC50 at hAChE [1] (setting [7]) and on hBuChE [2] (setting [8]) was greater than 10000 nM each time. At human recombinant DYRK1A (setting [9]), the inhibition at 1 µM turned out to be 7%.
